Experimental data as given in patent US20050197372A1 (priority 2002, published 2005).

Columns and labels:
Type in all cases: cell-based, human
[1] = system: platelets (agglutination with fibrinogen-coated beads); test: Ultegra rapid platelet-function assay (RPFA-ASA); conditions: baseline 159 ± 27
Description: (§1) None of them received aspirin or any other anti-platelet agents. All subjects underwent blood sampling after at least 30 minutes of rest and 2 or more hours of fasting. Blood was drawn between 8 and 10 a.m. in order to avoid any diurnal influence and sampled from an antecubital vein using a 21-gauge butterfly needle containing 3.8% sodium citrate (1:9 volume) after having discarded the first 1.5 ml of free running blood. Eleven Vacutainer tubes (4.5 ml) were collected for a total of 49 ml of whole blood-citrate mixture from each study participant. One tube was kept as an internal control and was incubated with buffer solution. […] To avoid possible observer bias, blood samples were coded and blinded. Sampling procedures, and platelet studies were performed by individuals unaware of the protocol.
A rapid platelet-function assay cartridge test (RPFA-ASA, Ultegra® Accumetrics, Inc., San Diego, Calif., USA), using polystyrene beads coated cartridges with lyophilized human fibrinogen-coated microparticles, and propyl gallat served as an agonist. The whole blood citrate mixture was added to the cartridge, and agglutination between platelets and coated beads was recorded. The data mirrored turbidometric platelet aggregation and reflected the degree of platelet prostaglandin blockade. Smith J W, et al., Circulation 1999; 99: 620-625. Ultegra® assays were performed in duplicate. An electronic quality control test was performed on each instrument every day of use prior to performing any subject samples.

[2] = system: platelet/endothelial tetraspan antigen -3 (PETA-3, CD151); test: Whole blood flow cytometry, PETA-3 expression; conditions: for Expression of platelet/endothelial tetraspan antigen -3 (PETA-3, CD151): baseline 88.7 ± 24.2
Description: as §1
(§2) The expression of platelet receptors was determined by using the following monoclonal antibodies: CD31 (platelet endothelial cell adhesion molecule (PECAM-1), CD41 (glycoprotein [GP] IIb/IIIa, (IIb (3), CD42b (GP Ib), CD 51/CD61 ((v (3, or vitronectin receptor), CD62p (P-selectin), CD107a (lysosome associated membrane protein-1; LAMP-1), CD 107b (LAMP-2), CD151 (platelet/endothelial tetraspan antigen-3; PETA-3), and PAC-1 for fibrinogen-platelet (PharMingen, San Diego, Calif.). Platelet-leukocyte interactions were assessed by using dual antibodies for a pan-platelet marker (CD 151), together with CD14, a monocyte/macrophage marker. The blood-citrate mixture (50 μl) was diluted with 450 μl Tris buffered saline (TBS) (10 mmol/L Tris, 0.15 mol/L sodium chloride) and mixed by gently inverting an Eppendorf tube 2 times. Five μl of the corresponding antibodies were then added to each solution and the samples were incubated for 30 minutes. After incubation, 400 μl of 2% buffered paraformaldehyde was added for fixation. The samples were analyzed by a Becton Dickinson FACScan flow cytometer set up to measure fluorescent light scatter, as described in Gurbel P A, et al., J Am Coll Cardiol. 1998; 31: 1466-1473. The data were collected in list mode files and then analyzed. P selectin was expressed as percent positive cells as described in Gurbel P A, et al, Am Heart J 2000; 139: 320-328. Other antigens were expressed as log mean fluorescence intensity.

[3] = system: lysosome associated membrane protein -1 (LAMP-1, CD107a); test: Whole blood flow cytometry, LAMP-1 expression; conditions: baseline 8.7 ± 3.2
Description: as §1, §2

[4] = system: platelet-leukocyte microparticles (CD151 + CD14); test: Whole blood flow cytometry, platelet-leukocyte microparticles; conditions: for Formation of platelet-leukocyte microparticles (CD151 + CD14): baseline 92.2 ± 19.3
Description: as §1, §2

[5] = system: shear-induced platelet aggregation; test: PFA-100 closure time, epinephrine/collagen cartridge; conditions: baseline 201 ± 22
Description: as §1
The platelet function analyzer (PFA-100′, Dade Behring, Deerfield, Ill.) is a device that simulates changes in primary hemostasis after injury to a small vessel under flow conditions. Kundu S K, et al., Semin Thromb Hemost 1995; 21(Suppl 2): 106-112. The time required to obtain occlusion of the aperture was digitally recorded as a measure of shear-induced platelet aggregation. Closure time determinations were performed in duplicate.

[6] = system: glycoprotein Ib (GPIb, CD42b); test: Whole blood flow cytometry, GP Ib expression; conditions: for Expression of glycoprotein Ib (GPIb, CD42b): baseline 246.4 ± 26.7
Description: as §1, §2

[7] = system: platelet vitronectin receptor (CD51/CD61); test: Whole blood flow cytometry, vitronectin receptor expression; conditions: whole blood flow cytometry
Description: as §1, §2

[8] = system: platelet/endothelial cell adhesion molecule-1 (PECAM-1, CD31); test: Whole blood flow cytometry, PECAM-1 expression; conditions: for Expression of platelet/endothelial cell adhesion molecule-1 (PECAM-1, CD31): baseline 69.2 ± 10.3
Description: as §1, §2

[9] = system: Glycoprotein IIb/IIIa activity (fibrinogen binding, PAC-1); test: Whole blood flow cytometry, GP IIb/IIIa activity (PAC-1); conditions: for Glycoprotein IIb/IIIa activity (fibrinogen binding, PAC-1): baseline 10.3 ± 2.8
Description: as §1, §2

[10] = system: platelet glycoprotein IIb/IIIa antigen (GPIIb, CD41); test: Whole blood flow cytometry, GP IIb/IIIa antigen expression; conditions: for Expression of platelet glycoprotein IIb/IIIa antigen (GPIIb, CD41): baseline 521.8 ± 98.2
Description: as §1, §2

## CCCCC(=O)N(Cc1ccc(-c2ccccc2-c2nnn[nH]2)cc1)[C@H](C(=O)O)C(C)C [Valsartan, (S)-N-(1-carboxy-2-methyl-prop-1-yl)-N-pentanoyl-N-[2;(1H-tetrazol-5-yl)biphenyl-4-yl-methyl]amine, reference compound]
[1]; drug 10 nM
  Ultegra Analyzer: 164 ± 16 platelet activation units
[1]; drug 100 nM
  Ultegra Analyzer: 160 ± 29 platelet activation units
[1]; drug 1 μM
  Ultegra Analyzer: 129 ± 26 platelet activation units
[1]; drug 10 μM
  Ultegra Analyzer: 130 ± 31 platelet activation units
[1]; drug 100 μM
  Ultegra Analyzer: 152 ± 19 platelet activation units
[2]; drug 10 nM
  Expression of platelet/endothelial tetraspan antigen -3 (PETA-3, CD151): 84.1 ± 19.7 log MFI
[2]; drug 100 nM
  Expression of platelet/endothelial tetraspan antigen -3 (PETA-3, CD151): 91.5 ± 23.4 log MFI
[2]; drug 1 μM
  Expression of platelet/endothelial tetraspan antigen -3 (PETA-3, CD151): 81.6 ± 20.1 log MFI
[2]; drug 10 μM
  Expression of platelet/endothelial tetraspan antigen -3 (PETA-3, CD151): 87.9 ± 18.3 log MFI
[2]; drug 100 μM
  Expression of platelet/endothelial tetraspan antigen -3 (PETA-3, CD151): 91.7 ± 22.1 log MFI
[2]; whole blood flow cytometry
  Effect on PETA-3 (CD151) (in words): not associated with any effect
[3]; drug 10 nM
  Expression of lysosome associated membrane protein -1 (LAMP-1, CD107a): 9.1 ± 3.8 log MFI
[3]; drug 100 nM
  Expression of lysosome associated membrane protein -1 (LAMP-1, CD107a): 8.9 ± 2.7 log MFI
[3]; drug 1 μM
  Expression of lysosome associated membrane protein -1 (LAMP-1, CD107a): 9.4 ± 3.9 log MFI
[3]; drug 10 μM
  Expression of lysosome associated membrane protein -1 (LAMP-1, CD107a): 6.5 ± 3.2 log MFI
[3]; drug 100 μM
  Expression of lysosome associated membrane protein -1 (LAMP-1, CD107a): 10.1 ± 4.5 log MFI
[4]; drug 10 nM
  Formation of platelet-leukocyte microparticles (CD151 + CD14): 91.2 ± 20.5 log MFI
[4]; drug 100 nM
  Formation of platelet-leukocyte microparticles (CD151 + CD14): 88.4 ± 21.9 log MFI
[4]; drug 1 μM
  Formation of platelet-leukocyte microparticles (CD151 + CD14): 93.5 ± 23.8 log MFI
[4]; drug 10 μM
  Formation of platelet-leukocyte microparticles (CD151 + CD14): 96.5 ± 18.7 log MFI
[4]; drug 100 μM
  Formation of platelet-leukocyte microparticles (CD151 + CD14): 90.5 ± 19.2 log MFI
[4]; whole blood flow cytometry
  Effect on platelet-leukocyte microparticles (CD151+14) (in words): not associated with any effect
[5]; drug 10 nM
  PFA-100 closure time with the epinephrine/collagen cartridge: 187 ± 30 s
[5]; drug 100 nM
  PFA-100 closure time with the epinephrine/collagen cartridge: 209 ± 21 s
[5]; drug 1 μM
  PFA-100 closure time with the epinephrine/collagen cartridge: 268 ± 19 s
[5]; drug 10 μM
  PFA-100 closure time with the epinephrine/collagen cartridge: 278 ± 20 s
[5]; drug 100 μM
  PFA-100 closure time with the epinephrine/collagen cartridge: 200 ± 27 s
[6]; drug 10 nM
  Expression of glycoprotein Ib (GPIb, CD42b): 256.4 ± 31.4 log MFI
[6]; drug 100 nM
  Expression of glycoprotein Ib (GPIb, CD42b): 248.7 ± 20.9 log MFI
[6]; drug 1 μM
  Expression of glycoprotein Ib (GPIb, CD42b): 264.8 ± 18.2 log MFI
[6]; drug 10 μM
  Expression of glycoprotein Ib (GPIb, CD42b): 244.3 ± 46.9 log MFI
[6]; drug 100 μM
  Expression of glycoprotein Ib (GPIb, CD42b): 255.9 ± 19.7 log MFI
[6]; whole blood flow cytometry
  Effect on GP Ib (CD42) (in words): not associated with any effect
[7]
  Effect on expression of vitronectin receptors (in words): moderately reduced
[8]; drug 10 nM
  Expression of platelet/endothelial cell adhesion molecule-1 (PECAM-1, CD31): 71.8 ± 11.9 log MFI
[8]; drug 100 nM
  Expression of platelet/endothelial cell adhesion molecule-1 (PECAM-1, CD31): 70.6 ± 12.6 log MFI
[8]; drug 1 μM
  Expression of platelet/endothelial cell adhesion molecule-1 (PECAM-1, CD31): 74.5 ± 16.2 log MFI
[8]; drug 10 μM
  Expression of platelet/endothelial cell adhesion molecule-1 (PECAM-1, CD31): 68.2 ± 16.2 log MFI
[8]; drug 100 μM
  Expression of platelet/endothelial cell adhesion molecule-1 (PECAM-1, CD31): 70.6 ± 15.8 log MFI
[8]; whole blood flow cytometry
  Effect on PECAM-1 (CD31) (in words): not associated with any effect
[9]; drug 10 nM
  Glycoprotein IIb/IIIa activity (fibrinogen binding, PAC-1): 9.3 ± 2.87 log MFI
[9]; drug 100 nM
  Glycoprotein IIb/IIIa activity (fibrinogen binding, PAC-1): 11.2 ± 3.4 log MFI
[9]; drug 1 μM
  Glycoprotein IIb/IIIa activity (fibrinogen binding, PAC-1): 7.0 ± 2.9 log MFI
[9]; drug 10 μM
  Glycoprotein IIb/IIIa activity (fibrinogen binding, PAC-1): 6.9 ± 2.7 log MFI
[9]; drug 100 μM
  Glycoprotein IIb/IIIa activity (fibrinogen binding, PAC-1): 9.9 ± 3.1 log MFI
[9]; whole blood flow cytometry
  Effect on fibrinogen binding (PAC-1) (in words): slightly reduced
[10]; drug 10 nM
  Expression of platelet glycoprotein IIb/IIIa antigen (GPIIb, CD41): 531.2 ± 102.5 log MFI
[10]; drug 100 nM
  Expression of platelet glycoprotein IIb/IIIa antigen (GPIIb, CD41): 502.9 ± 112.7 log MFI
[10]; drug 1 μM
  Expression of platelet glycoprotein IIb/IIIa antigen (GPIIb, CD41): 498.2 ± 94.5 log MFI
[10]; drug 10 μM
  Expression of platelet glycoprotein IIb/IIIa antigen (GPIIb, CD41): 506.7 ± 100.1 log MFI
[10]; drug 100 μM
  Expression of platelet glycoprotein IIb/IIIa antigen (GPIIb, CD41): 455.2 ± 99.6 log MFI
[10]; whole blood flow cytometry
  Effect on expression of GP IIb/IIIa (CD 41) (in words): decreased expression of CD41 only at a high dose
